# Measured values taken from patent US5041426A, “Immune system enhancing 3-β-d-ribofuranosylthiazolo[4,5-d]pyridimine nucleosides and nucleotides” (priority 1988, dated 1991).
# Read-outs that look alike come from different tables or passages of the source.
# Experiments:
# [1] = tested on: Mastocytoma (P815) tumor cells; assay: In vivo potentiation of cytotoxic lymphocytes activity against mastocytoma tumor cells; design: species or system mouse; conditions: for % Cytotoxicity: DBA/2 mice, compound 7 2 mg/mouse, interleukin-2 50 U per mouse
# Protocol: ^a Ten mice in each group were inoculated with 2 × 10^6
# tumor cells. After 5 hours, saline or nucleoside compound 7 solution (2
# mg/mouse) was administered to each mouse. On days 3,5,7 or 9, spleen cell
# were isolated and their cytotoxicity was determined against P815 tumor
# cells as described in Gonzales and Sharma.
# Compound 7 was tested to determine whether or not it can increase cytotoxic lymphocytes response against mastocytoma tumor cells. In the test mice were immunized with mastocytoma cells (P815) and after 5 hours compound 7 as a solution was given in a dose of […] per mouse.
# [2] = tested on: San Angelo Virus; type: in vivo, mouse; conditions: for Mean Survival Time: Time (21 days)
# [3] = tested on: Banzi Virus; type: in vivo, mouse; conditions: compound 7 100 mg/kg at -24 h, saline days 0-6; of mice that died
# [4] = tested on: P388; assay: Mean life span and viable tumor cells of P388 inoculated mice, by delivery schedule; type: in vivo, mouse; conditions: qd; for Postinoculation Life Span: pooled 37, 62 or 104 mg/kg/injection; for Change in Life Span / Viable Cells Day 6: pooled doses
# Protocol: In this example as summarized in table 30, different drug delivery regimen were utilized for compound 7 against P388 in the mouse and the postinoculation life span, the change in life span and the number of viable tumor cells at day 6 measured. For this test the data shown are pooled by schedule without regard for dosage. Each treatment group included a total of 15 mice divided into sub-groups of 5 mice treated respectively with 37, 62 or 104 mg/kg/injection of drug per sub-group. After treatment the test animals were monitored for survival.
# ^a P388 ascites cells (1 × 10^6) were implanted ip in
# BDF1 female mice on day 0, and ip bolus injections of drug were
# delivered once daily on the days indicated. The drug was delivered on the
# basis of 0.01 ml/g mouse weight. Control mice received a 0.09% solution o
# NaCl delivered on the same basis.
# [5] = tested on: P388; assay: Response of P388 inoculated mice to various dosages, inocula and schedules; type: in vivo, mouse
# Excerpt: For this example varying concentrations of the number of test cells utilized for P388 inoculum and concentrations of compound 7 were utilized with various schedules of drug administration.
# ^a P388 ascites cells were implanted ip in the concentrations
# indicated in BDF1 female mice on day 0, and ip bolus injections of
# drug were delivered once daily on the days indicated in the conentrations
# indicated. Control mice received a 0.09% solution of NaCl delivered on th
# [6] = tested on: Friend Leukemia virus; assay: Friend Leukemia virus induced spleenomegaly; type: in vivo; conditions: further test
# Excerpt: As is evident from the above tables antiviral activity against a variety of viruses is seen.
# [7] = tested on: YAC-1 tumor target cells; assay: In vivo potentiation of natural killer cell activity in CBA/CaJ mice (spleen cells); conditions: for % Natural Killer Cytotoxicity: 1.68 mg/mouse i.p.
# Protocol: After 1, 2, 3 and 4 days of treatment the spleens of the mice were harvested and the cytotoxic activity of the spleen cells was determined against YAC-1 tumor target cells in the above referred to ^51 Cr release assay as identified in EXAMPLE 32.
# (1.68 mg/mouse) by intraperitoneal route.
# Each value represents mean ±SD cytotoxic activity of three mice
structure (smiles),measurement,setting,value
"Nc1nc2c(sc(=O)n2[C@@H]2O[C@H](CO)[C@@H](O)[C@H]2O)c(=O)[nH]1 [Compound 7, 5-Amino-3-β-D-ribofuranosylthiazolo[4,5-d]pyrimidine-2,7(6H)-dione]",% Cytotoxicity,"[1]; day 3, 4320 min",30%
same,% Cytotoxicity,"[1]; day 5, 7200 min",24%
same,% Cytotoxicity,"[1]; day 7, 10080 min",32%
same,% Cytotoxicity,"[1]; day 9, 12960 min",27%
same,cytotoxicity versus control group,[1]; p<0.05,statistically significant higherly cytotoxicity than the control group
same,Mean Survival Time,"[2]; 50 mg/kg/day, once a day at -2 h and days 2, 4, 6",> 13.0 ± 0.0 days
same,Mean Survival Time,"[2]; 100 mg/kg/day, once a day at -2 h and days 2, 4, 6",> 21 days
same,Mean Survival Time,"[2]; 200 mg/kg/day, -2 h and days 2, 4, 6, half daily doses twice a day",> 21 days
same,Mean Survival Time,"[2]; 200 mg/kg/day, half-daily doses at 24 and 16 h pre-virus (prophylactic)",> 21 days
same,antiviral activity compared with Ribavirin,[2]; therapeutic and prophylactic mode,antiviral activity equal to that of Ribavirin
same,Mean Survival Time,[3],9.3 ± 1.0 days
same,Postinoculation Life Span,"[4]; day 2,4",8.73 ± 0.59 days
same,Change in Life Span,"[4]; day 2,4",7 % of Control
same,Viable Cells Day 6,"[4]; day 2,4",66 % of Control
same,Postinoculation Life Span,"[4]; day 2-6, p < 0.001",9.13 ± 0.52 days
same,Change in Life Span,[4]; day 2-6,12 % of Control
same,Viable Cells Day 6,[4]; day 2-6,49 % of Control
same,Postinoculation Life Span,[4]; day 2,8.60 ± 0.51 days
same,Change in Life Span,[4]; day 2,5 % of Control
same,Viable Cells Day 6,[4]; day 2,73 % of Control
same,groups showing an increase in life span,[5]; 26 of the 34 groups,76%
same,% Increased Life Span,"[5]; Study 1, 1 × 10^2 cells, 37 mg/kg/inj day 1-9",0%
same,% Increased Life Span,"[5]; Study 1, 1 × 10^2 cells, 37 mg/kg/inj day 1, 3 mice, printed as cures",2 cures
same,% Increased Life Span,"[5]; Study 1, 1 × 10^2 cells, 62 mg/kg/inj day 1-9",33%
same,% Increased Life Span,"[5]; Study 1, 1 × 10^2 cells, 62 mg/kg/inj day 1, 3 mice, printed as cures",1 cure
same,% Increased Life Span,"[5]; Study 1, 1 × 10^2 cells, 104 mg/kg/inj day 1",0%
same,% Increased Life Span,"[5]; Study 1, 1 × 10^2 cells, 104 mg/kg/inj day 1-9",10%
same,% Increased Life Span,"[5]; Study 2, 1 × 10^2 cells, 8 mg/kg/inj day 1",9%
same,% Increased Life Span,"[5]; Study 2, 1 × 10^2 cells, 13 mg/kg/inj day 1",7%
same,% Increased Life Span,"[5]; Study 2, 1 × 10^2 cells, 22 mg/kg/inj day 1",7%
same,% Increased Life Span,"[5]; Study 2, 1 × 10^2 cells, 37 mg/kg/inj day 1",3%
same,% Increased Life Span,"[5]; Study 3, 1 × 10^4 cells, 37 mg/kg/inj day 1",2%
same,% Increased Life Span,"[5]; Study 3, 1 × 10^4 cells, 37 mg/kg/inj day 1-9",0%
same,% Increased Life Span,"[5]; Study 3, 1 × 10^4 cells, 62 mg/kg/inj day 1",0%
same,% Increased Life Span,"[5]; Study 3, 1 × 10^4 cells, 62 mg/kg/inj day 1-9",2%
same,% Increased Life Span,"[5]; Study 3, 1 × 10^4 cells, 104 mg/kg/inj day 1",0%
same,% Increased Life Span,"[5]; Study 3, 1 × 10^4 cells, 104 mg/kg/inj day 1-9",6%
same,% Increased Life Span,"[5]; Study 4, 1 × 10^6 cells, 37 mg/kg/inj day 1",0%
same,% Increased Life Span,"[5]; Study 4, 1 × 10^6 cells, 37 mg/kg/inj day 1-9",5%
same,% Increased Life Span,"[5]; Study 4, 1 × 10^6 cells, 62 mg/kg/inj day 1",0%
same,% Increased Life Span,"[5]; Study 4, 1 × 10^6 cells, 62 mg/kg/inj day 1-9",5%
same,% Increased Life Span,"[5]; Study 4, 1 × 10^6 cells, 104 mg/kg/inj day 1",9%
same,% Increased Life Span,"[5]; Study 4, 1 × 10^6 cells, 104 mg/kg/inj day 1-9",23%
same,% Increased Life Span,"[5]; Study 5, 1 × 10^6 cells, 37 mg/kg/inj day 2",0%
same,% Increased Life Span,"[5]; Study 5, 1 × 10^6 cells, 37 mg/kg/inj day 2,4",8%
same,% Increased Life Span,"[5]; Study 5, 1 × 10^6 cells, 37 mg/kg/inj day 2-6",8%
same,% Increased Life Span,"[5]; Study 5, 1 × 10^6 cells, 62 mg/kg/inj day 2",5%
same,% Increased Life Span,"[5]; Study 5, 1 × 10^6 cells, 62 mg/kg/inj day 2,4",8%
same,% Increased Life Span,"[5]; Study 5, 1 × 10^6 cells, 62 mg/kg/inj day 2-6",15%
same,% Increased Life Span,"[5]; Study 5, 1 × 10^6 cells, 104 mg/kg/inj day 2",10%
same,% Increased Life Span,"[5]; Study 5, 1 × 10^6 cells, 104 mg/kg/inj day 2,4",5%
same,% Increased Life Span,"[5]; Study 5, 1 × 10^6 cells, 104 mg/kg/inj day 2-6",12%
same,toxicity,"[5]; Study 6, 140 mg/kg/inj day 2,4,6,8, 7 mice",toxic in one animal
same,% Increased Life Span,"[5]; Study 6, 1 × 10^6 cells, 140 mg/kg/inj day 2",4%
same,% Increased Life Span,"[5]; Study 6, 1 × 10^6 cells, 140 mg/kg/inj day 2,4,6,8",21%
same,% Increased Life Span,"[5]; Study 6, 1 × 10^6 cells, 140 mg/kg/inj day 2,6",20%
same,antiviral activity against Friend Leukemia virus induced spleenomegaly,[6],little or no antiviral activity
same,% Natural Killer Cytoxicity,"[7]; 0.84 mg i.p., E:T 50:1",38 ± 7%
same,% Natural Killer Cytoxicity,"[7]; 0.84 mg i.p., E:T 100:1",48 ± 9%
same,% Natural Killer Cytoxicity,"[7]; 0.84 mg i.p., E:T 150:1",56 ± 8.5%
same,increase in natural killer cell activity,[7]; 0.84 mg to 3.36 mg per mouse,all doses of compound 7 induced a marked increase in natural killer cell activity
same,% Natural Killer Cytoxicity,"[7]; 1.68 mg i.p., E:T 50:1 (Table 4)",44 ± 8%
same,% Natural Killer Cytoxicity,"[7]; 1.68 mg i.p., E:T 100:1 (Table 4)",56 ± 12%
same,% Natural Killer Cytoxicity,"[7]; 1.68 mg i.p., E:T 150:1 (Table 4)",61 ± 14%
same,% Natural Killer Cytotoxicity,"[7]; 1 day after treatment, E:T 50:1",53 ± 5%
same,% Natural Killer Cytotoxicity,"[7]; 1 day after treatment, E:T 100:1",64 ± 5%
same,% Natural Killer Cytotoxicity,"[7]; 1 day after treatment, E:T 150:1",71 ± 9%
same,% Natural Killer Cytotoxicity,"[7]; 2 days after treatment, E:T 50:1",46 ± 9%
same,% Natural Killer Cytotoxicity,"[7]; 2 days after treatment, E:T 100:1",64 ± 5%
same,% Natural Killer Cytotoxicity,"[7]; 2 days after treatment, E:T 150:1",65 ± 7%
same,% Natural Killer Cytotoxicity,"[7]; 3 days after treatment, E:T 50:1",38 ± 6.6%
same,% Natural Killer Cytotoxicity,"[7]; 3 days after treatment, E:T 100:1",50 ± 7%
same,% Natural Killer Cytotoxicity,"[7]; 3 days after treatment, E:T 150:1",63 ± 6%
same,% Natural Killer Cytotoxicity,"[7]; 4 days after treatment, E:T 50:1",30 ± 0.1%
same,% Natural Killer Cytotoxicity,"[7]; 4 days after treatment, E:T 100:1",37 ± 1.5%
same,% Natural Killer Cytotoxicity,"[7]; 4 days after treatment, E:T 150:1",48 ± 3%
same,% Natural Killer Cytoxicity,"[7]; 2.52 mg i.p., E:T 50:1",48 ± 6.6%
same,% Natural Killer Cytoxicity,"[7]; 2.52 mg i.p., E:T 100:1",62 ± 7%
same,% Natural Killer Cytoxicity,"[7]; 2.52 mg i.p., E:T 150:1",70 ± 5%
same,% Natural Killer Cytoxicity,"[7]; 3.36 mg i.p., E:T 50:1",48 ± 4.6%
same,% Natural Killer Cytoxicity,"[7]; 3.36 mg i.p., E:T 100:1",67 ± 10%
same,% Natural Killer Cytoxicity,"[7]; 3.36 mg i.p., E:T 150:1",74 ± 6.4%
same,Emax,"[7]; Mus musculus, YAC-1, 24 h, read-out: maximum response, increase in natural killer cell activity",382%
same,increase in natural killer cell activity,"[7]; single injection 1.68 mg per mouse, after 4 days",More than a two fold increase
